The target of the assay is T1, HMG-CoA reductase (Rattus norvegicus, UniProt P51639).
T1 sequence (P51639 1-887): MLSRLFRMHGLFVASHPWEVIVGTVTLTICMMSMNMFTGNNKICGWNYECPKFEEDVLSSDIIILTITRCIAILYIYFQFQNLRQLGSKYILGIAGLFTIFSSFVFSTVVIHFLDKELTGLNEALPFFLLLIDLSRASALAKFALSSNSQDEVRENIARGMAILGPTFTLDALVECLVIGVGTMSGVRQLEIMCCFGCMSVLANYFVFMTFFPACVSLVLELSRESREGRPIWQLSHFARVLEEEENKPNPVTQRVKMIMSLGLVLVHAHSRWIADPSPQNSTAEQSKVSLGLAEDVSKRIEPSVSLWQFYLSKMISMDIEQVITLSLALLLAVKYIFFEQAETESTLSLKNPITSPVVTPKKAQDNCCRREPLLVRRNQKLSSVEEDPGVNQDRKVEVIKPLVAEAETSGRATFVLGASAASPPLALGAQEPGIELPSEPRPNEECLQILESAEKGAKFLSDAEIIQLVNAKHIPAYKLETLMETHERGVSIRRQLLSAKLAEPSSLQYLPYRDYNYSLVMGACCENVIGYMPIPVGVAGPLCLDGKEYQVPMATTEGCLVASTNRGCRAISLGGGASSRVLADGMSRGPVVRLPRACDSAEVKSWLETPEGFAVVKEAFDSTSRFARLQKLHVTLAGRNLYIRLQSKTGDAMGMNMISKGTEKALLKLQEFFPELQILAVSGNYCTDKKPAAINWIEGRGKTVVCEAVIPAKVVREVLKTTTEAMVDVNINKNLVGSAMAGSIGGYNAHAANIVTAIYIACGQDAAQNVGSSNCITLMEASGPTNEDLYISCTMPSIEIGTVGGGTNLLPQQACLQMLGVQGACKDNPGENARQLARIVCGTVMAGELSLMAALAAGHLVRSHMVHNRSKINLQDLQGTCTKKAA
Kind of assay: Inhibition of HMG-CoA reductase activity on solubilized enzyme preparations from rat liver microsomes. It counts as biochemical. Particulars: solubilized rat-liver microsomal enzyme; for IC50: molar concentration required for 50% inhibition, (S,R) 14C-HMG-CoA substrate, mean of 3 parallel samples.

Consider `Cc1cc(C)c(OC[C@@H]2C[C@@H](O)CC(=O)O2)c(CCCOc2ccc(F)cc2)c1` [A, 6(S)-{4,6-dimethyl-2-[3-(4-fluorophenoxy)propyl]phenoxymethyl}-3,4,5,6-tetrahydro-4(R)-hydroxy-2H-pyran-2-one, reference compound], for which half-maximal inhibition (IC50) was put at 1000 nM. As for `Cc1cc(C)c(OC[C@@H]2C[C@@H](SC[C@H](N)C(=O)O)CC(=O)O2)c(CCCOc2ccc(F)cc2)c1` [Ve, 6S-({[2-(4-Fluorophenoxy-3-propyl)]-4,6-dimethylphenoxy}methyl)-4R-[(R)-2-amino-3-mercaptyl-propionic acid]-3,4,5,6-tetrahydro-2H-pyran-2-one], the inhibition was 37% (at 10^-6) and 24% (at 10^-7). In turn, `Cc1cc(C)c(OC[C@@H]2C[C@@H](SCc3ccccc3)CC(=O)O2)c(CCCOc2ccc(F)cc2)c1` [Vc, 6S-({[2-(4-Fluorophenoxy-3-propyl)]-4,6-dimethylphenoxy}methyl)-4R-benzylmercapto-3,4,5,6-tetrahydro-2H-pyran-2-one] returned an IC50 of roughly 100000 nM. Still for that read-out and setting: under `Cc1cc(C)c(OC[C@@H](O)C[C@@H](O)CC(=O)O)c(CCCOc2ccc(F)cc2)c1` [reference compound] stands 200 nM; under `CC(=O)S[C@H]1CC(=O)O[C@H](COc2c(C)cc(C)cc2CCCOc2ccc(F)cc2)C1` [Va, 6S-({[2-(4-Fluorophenoxy-3-propyl)]-4,6-dimethylphenoxy}methyl)-4R-acetylmercapto-3,4,5,6-tetrahydro-2H-pyran-2-one], 300 nM; under `Cc1cc(C)c(OC[C@@H]2C[C@@H](SCCO)CC(=O)O2)c(CCCOc2ccc(F)cc2)c1` [Vd, 6S-({[2-(4-Fluorophenoxy-3-propyl)]-4,6-dimethylphenoxy}methyl)-4R-β-hydroxyethylmercapto-3,4,5,6-tetrahydro-2H-pyran-2-one], 1000 nM.

These data come from patent US4946852A, “4(R)-substituted 6(S)-phenoxymethyl-, 6(S)-β-phenylethyl- and 6(S)-β-styryl-tetrahydropyran-2-ones, a highly stereoselective process for their preparation, pharmaceutical products based on these compounds, and their use” (Hoechst Aktiengesellschaft, priority 1986, dated 1990).
